Data taken from patent publication US20100285963A1, “SUBSTITUTED FLUOROALKOXYPHENYLSULFONYLUREAS” (priority 2001, published 2010).
Structures can show the parent of a compound that is named as a salt.

Columns and labels:
[1] = test system: apple mildew pathogen Podosphaera leucotricha; assay: Podosphaera test (apple)/protective; type: in vivo; conditions: protective; for efficacy against mildew of apples (Podosphaera leucotricha): application rate of 100 g/ha, evaluation 10 days after the inoculation
Experimental: Solvent: 49 parts by weight of acetone
(§1) Emulsifier: 1 part by weight of alkylaryl polyglycol ether
To produce a suitable preparation of active compound, 1 part by weight of active compound is mixed with the stated amounts of solvent and emulsifier, and the concentrate is diluted with water to the desired concentration.
To test for protective activity, young plants are sprayed with the preparation of active compound at the stated application rate. After the spray coating has dried on, the plants are inoculated with an aqueous spore suspension of the apple mildew pathogen Podosphaera leucotricha. The plants are then placed in a greenhouse at about 23° C. and a relative atmospheric humidity of about 70%.
Evaluation is carried out 10 days after the inoculation. 0% means an efficacy which corresponds to that of the control, whereas an efficacy of 100% means that no infection is observed.

weeds [2] = assay: Post-emergence test (greenhouse), damage to weeds; type: in vivo; conditions: for activity against weeds: test plants of 5-15 cm sprayed, rated after three weeks as % damage vs untreated control
Experimental: (§2) Solvent: 5 parts by weight of acetone
as §1
(§3) To product a suitable preparation of active compound, 1 part by weight of active compound is mixed with the stated amount of solvent, the stated amount of emulsifier is added and the concentrate is diluted with water to the desired concentration.
(§4) Test plants of a height of 5-15 cm are sprayed with the preparation of active compound such that the particular amounts of active compound desired are applied per unit area. The concentration of the spray liquor is chosen such that the particular amounts of active compound desired are applied in 10001 of water/ha.
(§5) After three weeks, the degree of damage to the plants is rated in % damage in comparison to the development of the untreated control.
(§6) The figures denote: • 0%=no effect (like untreated control) • 100%=total destruction

weeds [3] = assay: Pre-emergence test (greenhouse), damage to weeds; type: in vivo; conditions: for activity against weeds: soil sprayed 24 hours after sowing, rated after three weeks as % damage vs untreated control
Experimental: as §2, §1
(§7) To produce a suitable preparation of active compound, 1 part by weight of active compound is mixed with the stated amount of solvent, the stated amount of emulsifier is added and the concentrate is diluted with water to the desired concentration.
(§8) Seeds of the test plants are sown in normal soil. After 24 hours, the soil is sprayed with the preparation of active compounds such that the particular amount of active compound desired is applied per unit area. The concentration of active compound in the spray liquor is chosen such that the particular amount of active compound desired is applied in 1000 liters of water per hectare.
(§9) After three weeks, the degree of damage to the plants is rated in % damage in comparison to the development of the untreated control. The figures denote: • 0%=no effect (like untreated control) • 100%=total destruction

[4] = test system: crop plants, such as, for example, corn, wheat and sugar beet; assay: Post-emergence test (greenhouse), tolerance by crop plants; type: in vivo; conditions: 8 g of a.i./ha, after three weeks
Experimental: as §2, §1, §3, §4, §5, §6

[5] = test system: crop plants, such as, for example, wheat and soya; assay: Pre-emergence test (greenhouse), tolerance by crop plants; type: in vivo; conditions: 30 g of a.i./ha, after three weeks
Experimental: as §2, §1, §7, §8, §9

[6] = 8 g of a.i./ha, after three weeks, Table B6
[7] = 30 g of a.i./ha, after three weeks
[8] = 8 g of a.i./ha, after three weeks, Table B3
[9] = 60 g of a.i./ha, after three weeks, Table A6
[10] = 30 g of a.i./ha, after three weeks, Table B13
[11] = 60 g of a.i./ha, after three weeks, Table A7
[12] = 250 g of a.i./ha, after three weeks

For `COc1nc(C)nc(NC(=O)NS(=O)(=O)c2c(C)cccc2OCCF)n1` [drawing 18], the “% efficacy” value ([1]; apple, application rate 100 g/ha, 10 days after inoculation) was 100%.
With `CCCc1cccc(OCCF)c1S(=O)(=O)NC(=O)Nc1nc(OC)cc(OC)n1` [Example 26] the activity against weeds (weeds [2]) was “very strong activity”, the activity against weeds (weeds [3]) was “very strong activity” and the “efficacy against mildew of apples (Podosphaera leucotricha)” value [1] was 100%.
With `CCCc1cccc(OCCCF)c1S(=O)(=O)NC(=O)Nc1nc(OC)nc(OC)n1` [(8)] the “% damage Datura” value (weeds [2]; [6]) was 90%, the “% damage Ipomoea” value (weeds [2]; [6]) was 100% and the “% damage Matricaria” value (weeds [2]; [6]) was 95%. For the same molecule, the “% damage Solanum” value (weeds [2]; [6]) was 100%, the “% damage Stellaria” value (weeds [2]; [6]) was 95% and the “% damage Maize” value ([4]; Table B6) was 10%. For the same molecule, the “% damage Wheat” value ([4]; Table B6) was 0%, the “% damage Chenopodium” value (weeds [3]; [7]) was 90% and the “% damage Galium” value (weeds [3]; [7]) was 90%. The “% damage Stellaria” value (weeds [3]; [7]) was 100%, the “% damage Viola” value (weeds [3]; [7]) was 100% and the “% damage Wheat” value [5] was 0%.
For `CCc1cccc(OCCCF)c1S(=O)(=O)NC(=O)Nc1nc(C)nc(OC)n1` [(17)], the “% damage Abutilon” value (weeds [2]; [8]) was 100%, the “% damage Ipomoea” value (weeds [2]; [8]) was 100% and the “% damage Lolium” value (weeds [2]; [8]) was 90%. For the same molecule, the “% damage Matricaria” value (weeds [2]; [8]) was 100%, the “% damage Solanum” value (weeds [2]; [8]) was 100% and the “% damage Stellaria” value (weeds [2]; [8]) was 100%. The “% damage Wheat” value ([4]; Table B3) was 10%, the “% damage Abutilon” value (weeds [3]; [9]) was 95% and the “% damage Alopecurus” value (weeds [3]; [9]) was 95%. The “% damage Amaranthus” value (weeds [3]; [9]) was 95%, the “% damage Echinochloa” value (weeds [3]; [9]) was 95% and the “% damage Galium” value (weeds [3]; [9]) was 95%. For the same molecule, the “% damage Sinapis” value (weeds [3]; [9]) was 90%.
With `COc1nc(NC(=O)NS(=O)(=O)c2c(OCCF)cccc2C(F)(F)F)nc(OC)n1` [(21)] the “% damage Avena fatua” value (weeds [2]; [10]) was 100%, the “% damage Datura” value (weeds [2]; [10]) was 100% and the “% damage Lolium” value (weeds [2]; [10]) was 100%. The “% damage Matricaria” value (weeds [2]; [10]) was 100%, the “% damage Solanum” value (weeds [2]; [10]) was 100% and the “% damage Abutilon” value (weeds [3]; [11]) was 90%. The “% damage Alopecurus” value (weeds [3]; [11]) was 90%, the “% damage Amaranthus” value (weeds [3]; [11]) was 95% and the “% damage Galium” value (weeds [3]; [11]) was 95%. The “% damage Setaria” value (weeds [3]; [11]) was 100% and the “% damage Sinapis” value (weeds [3]; [11]) was 100%.
In the case of `COc1cc(Cl)nc(NC(=O)NS(=O)(=O)c2c(OCCF)cccc2C(F)(F)F)n1` [Example 20], the activity against weeds (weeds [2]) is reported as “very strong activity” and the activity against weeds (weeds [3]) is reported as “very strong activity”.
For `COc1nc(C)nc(NC(=O)NS(=O)(=O)c2c(C)cccc2OCCF)n1` [(2)], the “% damage Abutilon” value (weeds [2]; [12]) was 100%, the “% damage Alopecurus” value (weeds [2]; [12]) was 100% and the “% damage Amaranthus” value (weeds [2]; [12]) was 100%. For the same molecule, the “% damage Avena fatua” value (weeds [2]; [12]) was 100%, the “% damage Galium” value (weeds [2]; [12]) was 100% and the “% damage Setaria” value (weeds [2]; [12]) was 100%. The “% damage Sinapis” value (weeds [2]; [12]) was 100%, the “% damage Alopecurus” value (weeds [3]; [12]) was 100% and the “% damage Amaranthus” value (weeds [3]; [12]) was 100%. The “% damage Avena fatua” value (weeds [3]; [12]) was 95%, the “% damage Galium” value (weeds [3]; [12]) was 100% and the “% damage Setaria” value (weeds [3]; [12]) was 100%. The “% damage Xanthium” value (weeds [3]; [12]) was 95%.
Work on `COc1nc(C)nc(NC(=O)NS(=O)(=O)c2c(C)cccc2OCCF)n1` (as salt: sodium) [Example 2, N-[2-(2-fluoroethoxy)-6-methylphenyl-sulfonyl]-M-(4-methoxy-6-methyl-1,3,5-triazin-2-yl)urea sodium salt] yielded a melting point of 185 °C.
For `COc1nc(C)nc(NC(=O)NS(=O)(=O)c2c(OCCF)cccc2C(F)(F)F)n1` [Example 3], the activity against weeds (weeds [2]) was “very strong activity” and the activity against weeds (weeds [3]) was “very strong activity”.
In the case of `COc1nc(C)nc(NC(=O)NS(=O)(=O)c2c(C)cccc2OCCF)n1` [Example 1, N-[2-(2-fluoroethoxy)-6-methylphenylsulfonyl]-N′-(4-methoxy-6-methyl-1,3,5-triazin-2-yl)urea], the activity against weeds (weeds [2]) is reported as “very strong activity”, the melting point is reported as 161 °C and the activity against weeds (weeds [3]) is reported as “very strong activity”. For the same molecule, the “efficacy against mildew of apples (Podosphaera leucotricha)” value [1] was 100%.
